Series [1] has as its system TPA-induced irritant contact dermatitis-like inflammation. The experiment in a line: TPA-induced irritant contact dermatitis-like inflammation of mouse ears. The class given is in vivo, Balb/C mouse. To be noted: for TPA-induced ear skin inflammation, histological analysis: H&E, vs control; for TPA-induced ear skin inflammation, histological analysis / expression of TSLP in TPA-treated mouse epidermis (immunochemistry): data not shown; for expression of TSLP in TPA-treated mouse epidermis (immunochemistry): TSLP-specific antibody; for TPA-induced transcription of pro-inflammatory genes (CCL4, COX2, MMP13, IL-1β, IL-6, TNF-α, TSLP, IL-22, IL-23): ear extracts, q-RT-PCR, D10; for TPA-induced skin inflammation: topical 1 nmole/cm^2, 5 days co-treatment with TPA. Here is the method:
Balb/C mouse ears were topically treated with TPA to induce an “irritant contact dermatitis-like inflammation”. Mice were treated for 4 days with TPA, then for 5 extra days (until D9) with either vehicle, TPA alone, TPA and Dex, TPA and CpdX or TPA and CpdX-D3. At D10, RNA transcripts were extracted from mouse ear skin samples and the transcripts of CCL4, COX2, MMP13, IL-1β, IL-6, TNF-α, TSLP, IL-22 and IL-23 were analyzed by q-RT-PCR. Ear skin was harvested, and histological (with H&E staining) and immunohistochemical (with anti-TSLP antibodies) analyses were carried out.

Series [2] deals with MC 903-induced atopic dermatitis (AD)-like inflammation. In words: Calcipotriol (MC 903)-induced atopic dermatitis-like inflammation of mouse ears. It is filed as in vivo, Balb/C mouse. Conditions: for MC 903-induced ear skin inflammation, histological analysis: H&E, vs control; for expression of the TSLP lymphokine in MC 903-treated mouse epidermis (immunohistochemistry): data not shown; for MC 903-induced transcription of pro-inflammatory genes (MMP13, COX2, IL-1β, IL-6, IL-10, IL-13 and TSLP): ear extracts, q-RT-PCR, D23; for MC 903-induced skin inflammation: topical 1 nmole/cm^2, 8 days co-treatment with MC 903. Here is the method:
To investigate the CpdX anti-inflammatory activity in vivo, Balb/C mouse ears were topically treated with calcipotriol (MC 903, a vitamin D3 analogue), in order to induce an atopic dermatitis (AD)-like inflammation (Li et al., 2006. Proc Natl Acad Sci USA. 103(31):11736-41).
Mice were treated for 14 days with MC 903, and then for 8 extra days (until D22) with either MC 903 alone (control), MC 903 and Dex, MC 903 and CpdX, MC 903 and CpdX(eA), MC 903 and CpdX(eB), MC 903 and CpdX-D3, MC 903 and CpdX-D3(eA) and MC 903 and CpdX-D3(eB).
At D23, RNA transcripts were extracted from mouse ear skin samples and the transcripts of 7 cytokines (MMP13, COX2, IL-1β, IL-6, IL-10, IL-13 and TSLP) were analyzed by q-RT-PCR. Ear skin was harvested and histological (with H&E staining) and immunohistochemical (with anti-TSLP antibodies) analyses were carried out.

A short description of series [3]: Body weight and body composition after three-month treatment (pDEXA). It is filed as in vivo, B6 male mice. To be noted: s.c. 1 mg/kg daily, 3 months, pDEXA. The method, then:
B6 male mice (8-week-old) were daily subjected for three months to a subcutaneous injection of either vehicle (NaCl 0.9%), Dex, CpdX or CpdX-D3 (1 mg/kg body weight, diluted in vehicle. A pDEXA machine was used to determine the lean mass and fat mass. The statistical significance was calculated through Krustal-Walis test followed by a Dunn's multiple comparison test, *p<0.05; **p<0.01; ***p<0.001.

For series [4], the system named is Aldara-induced psoriasis-like skin inflammation. In words: Aldara-induced psoriasis-like skin inflammation of mouse ears. It is filed as in vivo, Balb/C mouse. To be noted: for Aldara-induced psoriasis-like skin inflammation, histological analyses: H&E staining; for induced expression of the Th17 cytokines IL-17a, IL-17c, IL-17f and IL-22: ear extracts, q-RT-PCR, D10; for Aldara-induced psoriasis-like skin inflammation: topical 1 nmole/cm^2, last 5 days of 9 days Aldara. The method, then: Balb/C mouse ears were topically treated with Aldara® to induce a psoriasis-like skin inflammation ([…] et al., 2015. Br J Dermatol. 172(2):345-53). Mice were treated for 9 days with Aldara®, including a co-topical treatment for the last 5 days with either ethanol (Vehicle), Dex, CpdX or CpdX-D3. At D10, RNA transcripts were extracted from mouse ears and IL-17a, IL-17c, IL-17f and IL-22 transcripts were analyzed by q-RT-PCR. Ear skin samples were also harvested for histological analyses (with H&E staining).

The test system of a further series is liver. In words: Fatty liver after three-month treatment (red oil staining, q-RT-PCR, plasma cholesterol and bile acids). It is filed as in vivo, B6 male mice. Conditions: s.c. 1 mg/kg daily, three months. The method, then: B6 male mice (8-week-old) were daily subjected for three months to a subcutaneous injection of either vehicle (NaCl 0.9%), Dex, CpdX, CpdX(eA), CpdX(eB), CpdX-D3, CpdX-D3(eA) or CpdX-D3(eB) (1 mg/kg body weight, diluted in vehicle). Following this treatment, blood was collected at 10 a.m. by retro-orbital puncture in lithium-heparin coated vials. The plasmatic levels of total cholesterol and bile acids were determined.
Liver samples were harvested. […] RNA transcripts were extracted from liver samples and the transcripts of fatty acid synthase (FASN) and Stearoyl-CoA desaturase 1 (SCD1) genes were analyzed by q-RT-PCR.

For series [5], the system named is collagen-induced Th17 rheumatoid arthritis-like inflammation. The experiment in a line: Collagen-induced arthritis (CIA). It is filed as in vivo, mice (DBA-1 strain). Conditions: for hind paw thickness at the ankle level: i.p. 1 mg/kg daily for 10 days (T0 to T10); for RNA transcripts of pro-inflammatory genes in hind paws (IL-1β, IL-6, IL-17a, IL-17f, TNFα): i.p. 1 mg/kg daily, T10, q-RT-PCR. The method, then:
Mice were treated with collagen to induce a Th17 rheumatoid arthritis-like inflammation as described by Inglis et al. (2007. Arthritis Res Ther. 9(5):R113) and Geboes et al. (2009. Arthritis Rheum. 60(2):390-5).
Male mice (DBA-1 strain) were subcutaneously-injected with 100 μg collagen per mouse on D0. The hind paw thickness at the ankle level was regularly measured with a caliper. When the ankle thickness had reached around 4 mm (T0, i.e., 30 to 50 days after the collagen injection on D0), mice were daily intraperitoneally-injected for 10 days (T0 to T10) with either vehicle (NaCl 0.9%), Dex, CpdX, CpdX(eA), CpdX(eB), CpdX-D3, CpdX-D3(eA) or CpdX-D3(eB) (1 mg/kg body weight diluted in NaCl 0.9%), and the hind paw thickness at the ankle level was daily measured with a caliper. Pictures of the hind paws were taken at days T0 and T10 (before and after the treatment with either Vehicle, Dex, CpdX, CpdX(eA), CpdX(eB), CpdX-D3, CpdX-D3(eA) or CpdX-D3(eB)), in order to assess the course of swelling.
RNA transcripts were extracted from whole hind paws of collagen-untreated and collagen-treated mice at T0 and T10. IL-1β, IL-6, IL-17a, IL-17f and TNFα transcripts were analyzed by q-RT-PCR.

The test system of series [6] is dorsal skin of Balb/C mice. The experiment in a line: Skin epidermis atrophy after 8-day topical treatment of dorsal skin. The class given is in vivo. To be noted: eight-day topical treatment. An excerpt: To investigate whether, similarly to Dex, a topical administration of CpdX could result in a skin atrophy, Balb/C mice were shaved on the dorsal skin. Ethanol (vehicle), Dex, CpdX or either one of its two enantiomers CpdX(eA) or CpdX(eB), as well as the deuterated form CpdX-D3 or either one of its two enantiomers CpdX-D3(eA) or CpdX-D3(eB), were topically applied onto the dorsal skin for 8 days.
Upon completion of the treatments, RNA transcripts were extracted from dorsal skin samples and the transcripts of Kindlin-1 and REDD1 genes were analyzed by q-RT-PCR. Histological and morphometric analyses of the dorsal skin were also performed.

Molecules are shown by their SMILES.

With `COc1ccc(F)cc1C(C)(C)CC(O)(CNc1ccc2c(c1)COC2=O)C(F)(F)F` (racemic) [CpdX, 5-[4-(5-fluoro-2-methoxyphenyl)-2-hydroxy-4-methyl-2-(trifluoromethyl)pentylamino]-isobenzofuran-1(3H)-one], in series [1], the “TPA-induced ear skin inflammation, histological analysis” value is “significantly decreased”; the “expression of TSLP in TPA-treated mouse epidermis (immunochemistry)” value is listed as “similarly strongly decreased”; the “TPA-induced transcription of pro-inflammatory genes (CCL4, COX2, MMP13, IL-1β, IL-6, TNF-α, TSLP, IL-22, IL-23)” value is “repressed, as efficiently as Dex”; the TPA-induced skin inflammation entry is listed as “significantly decreased”. Besides, in series [2], the “MC 903-induced ear skin inflammation, histological analysis” value is “decreased”; the “expression of the TSLP lymphokine in MC 903-treated mouse epidermis (immunohistochemistry)” value is on record as “similarly strongly decreased”; the “MC 903-induced transcription of pro-inflammatory genes (MMP13, COX2, IL-1β, IL-6, IL-10, IL-13 and TSLP)” value was “repressed, as efficiently as Dex”; the “MC 903-induced skin inflammation” value is listed as “significantly decreased”. Moreover, in series [3], the “fat mass / fat percentage, change from baseline” value is on record as “commensurate increase” and the “lean mass / lean percentage, change from baseline” value is “commensurate increase”. In series [4], the “Aldara-induced psoriasis-like skin inflammation, histological analyses” value is on record as “could reduce”; the “induced expression of the Th17 cytokines IL-17a, IL-17c, IL-17f and IL-22” value is given as “similarly reduced”; the “Aldara-induced psoriasis-like skin inflammation” value is “significantly decreased”. For the same compound, in the series with liver, the “lipid deposition in the liver (5% red oil staining)” value was “not observed”. In series [5], the “hind paw thickness at the ankle level” value is “rapid decrease” and the “RNA transcripts of pro-inflammatory genes in hind paws (IL-1β, IL-6, IL-17a, IL-17f, TNFα)” value (“RNA transcripts” for short) is given as “similarly repressed”. In addition, in series [6], the “epidermal thickness (morphometric analyses)” value (from here on “epidermal thickness”) is “not significantly decreased”.
`[2H]C([2H])([2H])Oc1ccc(F)cc1C(C)(C)CC(O)(CNc1ccc2c(c1)COC2=O)C(F)(F)F` (racemic) [CpdX-D3, 5-{4-[2-(methoxy-D3)-5-fluorophenyl]-2-hydroxy-4-methyl-2-(trifluoromethyl)pentylamino}isobenzofuran-1(3H)-one]: in series [1], the “TPA-induced ear skin inflammation, histological analysis” value is reported as “significantly decreased”; the “expression of TSLP in TPA-treated mouse epidermis (immunochemistry)” value is recorded as “similarly strongly decreased”; the “TPA-induced transcription of pro-inflammatory genes (CCL4, COX2, MMP13, IL-1β, IL-6, TNF-α, TSLP, IL-22, IL-23)” value was “repressed, as efficiently as Dex”; the TPA-induced skin inflammation result was “significantly decreased”. Besides, in series [2], the “MC 903-induced ear skin inflammation, histological analysis” value is “decreased”; the “expression of the TSLP lymphokine in MC 903-treated mouse epidermis (immunohistochemistry)” value is on record as “similarly strongly decreased”; the “MC 903-induced transcription of pro-inflammatory genes (MMP13, COX2, IL-1β, IL-6, IL-10, IL-13 and TSLP)” value is given as “repressed, as efficiently as Dex”; the “MC 903-induced skin inflammation” value is “significantly decreased”. Besides, in series [3], the “fat mass / fat percentage, change from baseline” value is listed as “commensurate increase” and the “lean mass / lean percentage, change from baseline” value was “commensurate increase”. Also, in series [4], the “Aldara-induced psoriasis-like skin inflammation, histological analyses” value is listed as “could reduce”; the “induced expression of the Th17 cytokines IL-17a, IL-17c, IL-17f and IL-22” value is “similarly reduced”; the “Aldara-induced psoriasis-like skin inflammation” value is “significantly decreased”. Further, the “lipid deposition in the liver (5% red oil staining)” value in the series on liver was “not observed”. In series [5], the “hind paw thickness at the ankle level” value was “rapid decrease” and the “RNA transcripts” value was “similarly repressed”. The “epidermal thickness” value in series [6] is given as “not significantly decreased”.
Consider `COc1ccc(F)cc1C(C)(C)CC(O)(CNc1ccc2c(c1)COC2=O)C(F)(F)F` (single isomer, unassigned; enantiomer a) [CpdX(eA), 5-[4-(5-fluoro-2-methoxyphenyl)-2-hydroxy-4-methyl-2-(trifluoromethyl)-pentylamino]isobenzofuran-1(3H)-one enantiomer A], for which the “RNA transcripts” value in series [5] (1 mg/kg) is on record as “similarly repressed”. Besides, the “epidermal thickness” value in series [6] is on record as “not significantly decreased”.
On the same counts, the results for `[2H]C([2H])([2H])Oc1ccc(F)cc1C(C)(C)CC(O)(CNc1ccc2c(c1)COC2=O)C(F)(F)F` (single isomer, unassigned; enantiomer a) [CpdX-D3(eA), 5-{4-[2-(methoxy-D3)-5-fluorophenyl]-2-hydroxy-4-methyl-2-(trifluoromethyl)pentylamino}isobenzofuran-1(3H)-one enantiomer A] are “similarly repressed” and “not significantly decreased”.
